The source of these data is ChEMBL document CHEMBL1141695, “Discovery of thieno[2,3-c]pyridines as potent COT inhibitors” (Bioorg Med Chem Lett, 2008).

Test [1] deals with T1, Mitogen-activated protein kinase kinase kinase 8 (Homo sapiens, UniProt P41279). The experiment in a line: Inhibition of human recombinant COT by HTRF-based assay.
In test [2] the target is Dual specificity mitogen-activated protein kinase kinase 1 (Homo sapiens, UniProt Q02750). Description: Inhibition of MEK1 by HTRF assay. On the technique in general: Time-resolved FRET reads energy transfer from a long-lived donor to a nearby acceptor.
Test [3] can be described thus: Inhibition of ERK phosphorylation in LPS-stimulated mouse PEC by HTRF assay.
Test [4] addresses T1, Mitogen-activated protein kinase kinase kinase 8. The experiment in a line: Inhibition of COT by cell-based HTRF assay.

A value given as a limit tells only on which side of the number the result lay.

T1 sequence (P41279 whole entry): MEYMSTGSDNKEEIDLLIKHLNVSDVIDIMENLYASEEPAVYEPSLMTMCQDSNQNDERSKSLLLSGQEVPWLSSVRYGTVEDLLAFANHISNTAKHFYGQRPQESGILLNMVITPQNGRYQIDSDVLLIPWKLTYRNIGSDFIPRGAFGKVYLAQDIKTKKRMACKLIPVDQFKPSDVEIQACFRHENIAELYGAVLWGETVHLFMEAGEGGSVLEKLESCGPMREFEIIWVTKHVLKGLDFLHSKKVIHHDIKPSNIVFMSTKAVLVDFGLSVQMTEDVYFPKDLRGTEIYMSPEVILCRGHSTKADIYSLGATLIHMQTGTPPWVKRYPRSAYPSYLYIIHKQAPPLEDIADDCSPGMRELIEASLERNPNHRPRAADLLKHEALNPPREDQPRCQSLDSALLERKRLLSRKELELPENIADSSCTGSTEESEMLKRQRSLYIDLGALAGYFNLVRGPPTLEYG
Dual specificity mitogen-activated protein kinase kinase 1, sequence (Q02750 whole entry): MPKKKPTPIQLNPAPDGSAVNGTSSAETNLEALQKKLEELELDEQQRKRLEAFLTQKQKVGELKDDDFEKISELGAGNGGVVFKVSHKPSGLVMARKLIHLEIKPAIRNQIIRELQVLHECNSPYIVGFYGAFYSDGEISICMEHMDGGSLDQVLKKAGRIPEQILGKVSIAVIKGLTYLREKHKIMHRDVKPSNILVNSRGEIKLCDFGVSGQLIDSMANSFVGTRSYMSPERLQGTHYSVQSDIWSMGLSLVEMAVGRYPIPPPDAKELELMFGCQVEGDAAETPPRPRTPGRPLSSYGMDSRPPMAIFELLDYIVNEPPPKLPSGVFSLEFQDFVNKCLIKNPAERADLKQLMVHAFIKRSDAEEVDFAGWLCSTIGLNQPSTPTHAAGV

The IC50 is the concentration that gives 50% inhibition. For `CN(C)C(=O)c1ccc(-c2ccc(Oc3cncc4sc(-c5nn[nH]n5)cc34)cc2)cc1`, the IC50 in test [1] was 50 nM; in test [2] it was 48000 nM; in test [3] it was > 50000 nM.
For `FC(F)(F)c1ccc(-c2ccc(Oc3cncc4sc(-c5nn[nH]n5)cc34)cc2)cc1`, the IC50 in test [1] turned out to be 280 nM; in test [2], 1800 nM; in test [3], 1700 nM; in test [4] it was 560 nM.
Turning to `OCc1ccc(-c2ccc(Oc3cncc4sc(-c5nnn[nH]5)cc34)cc2)cc1`, the IC50 was 40 nM in test [1] and 14000 nM in test [2].
As to `NC(=O)c1ccc(-c2ccc(Oc3cncc4sc(-c5nn[nH]n5)cc34)cc2)cc1`, the half-maximal inhibitory concentration (IC50) was found to be 10 nM in test [1], 18000 nM in test [2] and 130 nM in test [4].
For `Clc1ccccc1-c1ccc(Oc2cncc3sc(-c4nn[nH]n4)cc23)cc1`, the IC50 in test [1] was 150 nM; in test [2], 1500 nM; in test [3], > 50000 nM.
`Fc1ccc(-c2ccc(Oc3cncc4sc(-c5nn[nH]n5)cc34)cc2)cc1`: the IC50 in test [1] was 170 nM; in test [2], 7600 nM; in test [3], 11300 nM; in test [4] it was 6500 nM.
With `Nc1ccc(-c2ccc(Oc3cncc4sc(-c5nn[nH]n5)cc34)cc2)cc1`, the IC50 was found to be 230 nM in test [1], 1500 nM in test [2] and 1100 nM in test [3].
`c1ccc(-c2ccc(Oc3cncc4sc(-c5nn[nH]n5)cc34)cc2)cc1`: the IC50 in test [1] came out at 150 nM; in test [2], 9700 nM; in test [3] it was 12000 nM; in test [4], 4300 nM.
Regarding `COc1cccc(-c2ccc(Oc3cncc4sc(-c5nnn[nH]5)cc34)cc2)c1`, the 50% inhibitory concentration (IC50) in test [1] amounted to 240 nM; in test [2], 23000 nM.
With `COc1ccc(-c2ccc(Oc3cncc4sc(-c5nn[nH]n5)cc34)cc2)cc1`, the results for the IC50 in test [1] and in test [2] were 130 nM and 49000 nM, respectively.
As for `CC(=O)Nc1cc2c(Oc3ccc(I)cc3)cncc2s1`, the IC50 in test [1] is > 50000 nM.
For the molecule `O=c1nc(-c2cc3c(Oc4ccc(I)cc4)cncc3s2)[nH]o1`, the IC50 in test [1] is 1120 nM.
As for `c1ccc(-c2cccc(Oc3cncc4sc(-c5nn[nH]n5)cc34)c2)cc1`, in test [1], the 50% inhibitory concentration (IC50) was 1700 nM.
`COc1ccccc1-c1ccc(Oc2cncc3sc(-c4nnn[nH]4)cc23)cc1`: the IC50 in test [1] came out at 320 nM; in test [2], 21800 nM.
`N#Cc1ccc(-c2ccc(Oc3cncc4sc(-c5nn[nH]n5)cc34)cc2)cc1`: the concentration for half-maximal inhibition (IC50) in test [1] is 310 nM; in test [2] it was 21200 nM; in test [3], 47000 nM.
Regarding `Ic1ccc(Oc2cncc3sc(-c4nn[nH]n4)cc23)cc1`, the IC50 in test [1] worked out at 410 nM.
The same measure, in the same setting: the result for `O=C(NO)c1cc2c(Oc3ccc(I)cc3)cncc2s1` reads 540 nM; that for `c1ccc(-c2ccccc2Oc2cncc3sc(-c4nn[nH]n4)cc23)cc1`, 15000 nM.
Same read-out and setting: as for `Brc1ccc(Oc2cncc3sc(-c4nnn[nH]4)cc23)cc1`, the figure is 1600 nM.
Same read-out and setting: the result for `Clc1ccc(Oc2cncc3sc(-c4nnn[nH]4)cc23)cc1` reads 710 nM.
As for `Clc1cccc(-c2ccc(Oc3cncc4sc(-c5nn[nH]n5)cc34)cc2)c1`, the IC50 in test [1] is 120 nM; in test [2], 1900 nM; in test [3] it was > 50000 nM.
`O=C(O)c1cc2c(Oc3ccc(I)cc3)cncc2s1`: the half-inhibitory concentration (IC50) in test [1] was determined as 940 nM.
As for `Clc1ccc(-c2ccc(Oc3cncc4sc(-c5nn[nH]n5)cc34)cc2)cc1`, the half-inhibitory concentration (IC50) in test [1] is 90 nM; in test [2] it was 2400 nM; in test [3], > 50000 nM; in test [4], 2100 nM.
For the molecule `c1ccc(Oc2cncc3sc(-c4nn[nH]n4)cc23)cc1`, the IC50 in test [1] stood at 2200 nM.
On the same count and under the same terms, the result for `Nc1cc2c(Oc3ccc(I)cc3)cncc2s1` reads > 50000 nM.
As for `Cc1ccc(Oc2cncc3sc(-c4nn[nH]n4)cc23)cc1`, in test [1], the half-inhibitory concentration (IC50) came out at 7500 nM.
Still for that read-out and setting: the result for `CC(C)(C)c1ccc(Oc2cncc3sc(-c4nn[nH]n4)cc23)cc1` reads 610 nM.
